# Results as given in patent US11465998B2, “Therapeutic compounds and methods of use thereof” (Regents of the University of Minnesota, priority 2019, dated 2022).
# “Also recorded” adds a separate entry of the source.
# What was measured:
# Assay type in all cases: cell-based
# [1] = system: human peripheral blood mononuclear cells (PBMCs); assay: Multiplexed immunoassays for human cytokines in PBMCs
# Experimental: (§1) Example 5: High-throughput screens in porcine blood: Curated compound collections were obtained from the Institute for Therapeutics Discovery & Development at the University of Minnesota. Compound transfers from source (80 nL of 10 mM stocks) to assay plates were performed using an Echo 550 acoustic liquid handler (Labcyte, Sunnyvale, Calif.). For most libraries, a target final concentration of 10 μM of compound (in a final volume of 80 μL for the assay described below) was achieved. Compound plates were hermetically sealed and stored at −80° C. until used. Fresh, heparin-anticoagulated porcine blood from healthy animals were obtained under USDA supervision from Midwest Research Swine, LLC (Glencoe, Minn.). 80 μL of hematocrit-enriched porcine blood (low-speed centrifugation, followed by resuspension in DMEM supplemented with 10% fetal bovine serum) was added to compound plates and incubated for 15 h. The following day, the plates were briefly centrifuged (100 g, 10 min), and supernatants were transferred using an automated ViaFlow 384 transfer device (Integra Biosciences Corp., Hudson, N.H.) to assay plates containing of 10^6 cells/mL of each of the following NF-κB/secreted alkaline phosphatase reporter cells suspended in HEK-Blue Detection Media: human IFN-α/β, human IFN-γ, human TNF-α/IL-1β (InvivoGen, San Diego, Calif.). NF-κB translocation was assayed spectrophotometrically using an alkaline phosphatase-specific chromogen (present in HEK-detection medium as supplied by InvivoGen) at 620 nm using a SpectraMax M4 multimode microplate reader (Molecular Devices, Sunnyvale, Calif.). Z′ factors were computed for each TLR/NOD-specific signals. Hits were defined as signals >4σ (in-plate standard deviations for test compounds above negative control means), were deconvoluted in full dose-response assays in human TLR-2/-3/-4/-5/-7/-8/-9 and NOD-1/NOD-2-specific reporter cells in liquid handler-assisted assay formats as described previously. Example 6: Murine knockout cell-lines: The following reagents were obtained through BEI Resources, NIAID, NIH: the microglial cell line derived from MAL/MyD88 double knockout Mice (NR-9904), and the macrophage cell line derived from TRIF/TRAM knockout mice (NR-9568). Example 7: Human NOD1/2-specific reporter gene assays (NF-κB induction), and TLR-2/-3/-4/-5/-7/-8/-9/STING/ISG counter-screens: The induction of NF-κB was quantified using human TLR-2/-3/-4/-5/-7/-8/-9/NOD-1/NOD-2/STING/ISG-specific, rapid-throughput, liquid handler-assisted reporter gene assays as previously described by us (Wu, W. et al. J. Med. Chem. 2010, 53, 3198-3213; Shukla, N. M. et al. J. Med. Chem. 2010, 53, 4450-4465; Agnihotri, G. et al. J. Med. Chem. 2011, 54, 1490-1510 and Ukani, R. et al. Bioorg. Med. Chem. Lett. 2012, 22, 293-295). […]
# human whole blood = assay: Cytokine/chemokine induction in human whole blood
# [2] = system: RAW264.7 murine macrophages; assay: Cytokine/chemokine induction in wild-type RAW264.7 murine macrophages (multiplexed immunoassay); conditions: wild-type RAW264.7 murine macrophage cell line
# Experimental: (§2) Cytokine induction by 7e and 7f was examined in murine-derived cell lines. […] The absence of activity was not due to extensive plasma protein binding by re-examining under near-serum-free conditions.
# (§3) Example 5: High-throughput screens in porcine blood: Curated compound collections were obtained from the Institute for Therapeutics Discovery & Development at the University of Minnesota. Compound transfers from source (80 nL of 10 mM stocks) to assay plates were performed using an Echo 550 acoustic liquid handler (Labcyte, Sunnyvale, Calif.). For most libraries, a target final concentration of 10 μM of compound (in a final volume of 80 μL for the assay described below) was achieved. Compound plates were hermetically sealed and stored at −80° C. until used. Fresh, heparin-anticoagulated porcine blood from healthy animals were obtained under USDA supervision from Midwest Research Swine, LLC (Glencoe, Minn.). 80 μL of hematocrit-enriched porcine blood (low-speed centrifugation, followed by resuspension in DMEM supplemented with 10% fetal bovine serum) was added to compound plates and incubated for 15 h. […] NF-κB translocation was assayed spectrophotometrically using an alkaline phosphatase-specific chromogen (present in HEK-detection medium as supplied by InvivoGen) at 620 nm using a SpectraMax M4 multimode microplate reader (Molecular Devices, Sunnyvale, Calif.). […] Example 7: Human NOD1/2-specific reporter gene assays (NF-κB induction), and TLR-2/-3/-4/-5/-7/-8/-9/STING/ISG counter-screens: The induction of NF-κB was quantified using human TLR-2/-3/-4/-5/-7/-8/-9/NOD-1/NOD-2/STING/ISG-specific, rapid-throughput, liquid handler-assisted reporter gene assays as previously described by us (Wu, W. et al. J. Med. Chem. 2010, 53, 3198-3213; Shukla, N. M. et al. J. Med. Chem. 2010, 53, 4450-4465; Agnihotri, G. et al. J. Med. Chem. 2011, 54, 1490-1510 and Ukani, R. et al. Bioorg. Med. Chem. Lett. 2012, 22, 293-295). […]
# [3] = system: microglial cell line derived from MAL/MyD88 double knockout Mice (NR-9904); assay: Cytokine/chemokine induction in MAL/MyD88 double-knockout cell line; conditions: MAL/MyD88 double-knockout murine cell line
# Experimental: as §2, §3
# [4] = system: macrophage cell line derived from TRIF/TRAM knockout mice (NR-9568); assay: Cytokine/chemokine induction in TRIF/TRAM double-knockout cell line; conditions: TRIF/TRAM double-knockout murine cell line
# Experimental: as §2, §3
# human NOD2 = target: T1, human NOD2 (Homo sapiens, UniProt Q9HC29); assay: human NOD2 specific reporter gene assay (NF-κB induction); conditions: for hNOD2-agonistic activity (in words): human NOD2 reporter gene assay
# T1 construct: host or cells: HEK293
# Experimental: as §1, with “293-295). HEK293 cells stably co-transfected with the appropriate hTLR and secreted alkaline phosphatase (sAP) were maintained in HEK-Blue™ Selection medium. Stable expression of secreted alkaline phosphatase (sAP) under control of NF-κB/AP-1/IRF promoters is inducible by appropriate innate immune stimuli, and extracellular sAP in the supernatant is proportional to NF-κB/IRF induction. Reporter cells were incubated at a density of ˜10^5 cells/ml in a volume of 80 μl/well, in 384-well, flat-bottomed, cell culture-treated microtiter plates in the presence of graded concentrations of stimuli. sAP was assayed spectrophotometrically using an alkaline phosphatase-specific chromogen (present in HEK-detection medium as supplied by InvivoGen) at 620 nm. Example 8: Multiplexed immunoassays for human cytokines: Fresh human peripheral blood mononuclear cells (hPBMC) were isolated from human blood obtained by venipuncture in Cell Preparation Tubes (CPT, Beckton-Dickinson) with informed consent and as per guidelines approved by the University of Minnesota Human Subjects Experimentation Committee. Aliquots of PBMCs or THP-1 cells (10^5 cells in 100 μL/well) were stimulated for 16 h with graded concentrations of test compounds.” for “293-295).”
# T1 sequence (Q9HC29 whole entry): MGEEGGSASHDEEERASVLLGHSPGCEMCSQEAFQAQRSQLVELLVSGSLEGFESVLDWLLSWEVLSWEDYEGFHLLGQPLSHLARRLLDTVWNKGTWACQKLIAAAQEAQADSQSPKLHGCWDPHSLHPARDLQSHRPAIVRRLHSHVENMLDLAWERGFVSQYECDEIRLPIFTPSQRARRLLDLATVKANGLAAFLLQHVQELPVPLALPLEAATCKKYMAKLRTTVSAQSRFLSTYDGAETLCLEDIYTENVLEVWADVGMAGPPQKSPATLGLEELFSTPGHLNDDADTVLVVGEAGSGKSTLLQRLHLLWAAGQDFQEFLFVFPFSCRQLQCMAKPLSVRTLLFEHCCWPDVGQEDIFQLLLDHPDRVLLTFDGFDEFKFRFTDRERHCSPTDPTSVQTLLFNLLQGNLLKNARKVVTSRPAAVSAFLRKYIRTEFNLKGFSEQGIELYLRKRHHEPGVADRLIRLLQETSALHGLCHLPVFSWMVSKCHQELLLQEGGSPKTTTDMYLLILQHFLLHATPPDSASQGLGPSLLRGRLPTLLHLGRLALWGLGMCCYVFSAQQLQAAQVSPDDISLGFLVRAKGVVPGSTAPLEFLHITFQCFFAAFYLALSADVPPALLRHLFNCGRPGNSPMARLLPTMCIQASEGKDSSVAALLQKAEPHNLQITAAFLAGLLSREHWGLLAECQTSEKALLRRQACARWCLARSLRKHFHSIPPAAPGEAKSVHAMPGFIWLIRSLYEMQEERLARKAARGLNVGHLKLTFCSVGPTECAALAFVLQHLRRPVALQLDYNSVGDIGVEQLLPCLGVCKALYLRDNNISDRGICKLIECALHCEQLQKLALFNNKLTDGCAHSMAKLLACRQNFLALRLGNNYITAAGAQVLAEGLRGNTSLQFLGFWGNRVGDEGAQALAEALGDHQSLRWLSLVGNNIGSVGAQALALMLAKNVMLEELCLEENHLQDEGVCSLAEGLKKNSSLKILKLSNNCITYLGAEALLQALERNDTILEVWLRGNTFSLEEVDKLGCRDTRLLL
compound,measurement,setting,value
"CCOC(=O)c1cc(-n2cnc3ccccc32)cs1 [Compound 1, Ethyl 4-(1H-benzo[d]imidazol-1-yl)thiophene-2-carboxylate]",induction of chemokines and cytokines,[1],"None of the small molecules (including 1, as well as the optimized, equipotent analogues 7e and 7f) showed any activity"
same,induction of cytokines and chemokines,human whole blood,"None of the small molecules (including 1, as well as the optimized, equipotent analogues 7e and 7f) showed any activity"
"CCCCOC(=O)[C@@H](CCC(N)=O)NC(=O)[C@H](C)NC(=O)[C@@H](C)O[C@H]1[C@H](O)[C@@H](CO)OC(O)[C@@H]1NC(C)=O (stereo partly drawn) [murabutide, N-Acetyl-muramyl-LAlanyl-D-Glutamin-n-butyl-ester, reference compound]",induction of chemokines and proinflammatory cytokines,[2],potently immunostimulatory; also recorded: induction of chemokines and cytokines
same,cytokine and chemokine induction,[3],abrogation of responsiveness
same,cytokine and chemokine induction,[4],abrogation of responsiveness
same,induction of chemokines and cytokines,[1],induced significant levels of cytokines and chemokines
same,induction of cytokines and chemokines,human whole blood,induced significant levels of cytokines and chemokines
"NNC(=O)c1cc(-n2cnc3ccccc32)cs1 [Compound 2b, 4-(1H-Benzo[d]imidazol-1-yl)thiophene-2-carbohydrazide]",hNOD2-agonistic activity (in words),human NOD2,inactive
"O=C(NNc1ccccc1)c1cc(-n2cnc3ccccc32)cs1 [Compound 2h, 4-(1H-Benzo[d]imidazol-1-yl)-N′-phenylthiophene-2-carbohydrazide]",hNOD2-agonistic activity (in words),human NOD2,inactive
"O=C(NO)c1cc(-n2cnc3ccccc32)cs1 [Compound 2c, 4-(1H-Benzo[d]imidazol-1-yl)-N-hydroxythiophene-2-carboxamide]",hNOD2-agonistic activity (in words),human NOD2,inactive
"NC(=O)c1cscc1-n1cnc2ccccc21 [Compound 3b, 4-(1H-Benzo[d]imidazol-1-yl)thiophene-3-carboxamide]",hNOD2-agonistic activity (in words),human NOD2,inactive
"NC(=O)c1cccc(-n2cnc3ccccc32)c1 [Compound 3k, 3-(1H-Benzo[d]imidazol-1-yl)benzamide]",hNOD2-agonistic activity (in words),human NOD2,devoid of activity
"NC(=O)c1nc(-n2cnc3ccccc32)cs1 [Compound 3f, 4-(1H-Benzo[d]imidazol-1-yl)thiazole-2-carboxamide]",hNOD2-agonistic activity (in words),human NOD2,inactive; also recorded: devoid of activity
"CCCCc1nc2c(N)nccc2n1-c1csc(C(N)=O)c1 [Compound 19b, 4-(4-Amino-2-butyl-1H-imidazo[4,5-c]pyridin-1-yl)thiophene-2-carboxamide]",hNOD2-agonistic activity (in words),human NOD2,weakly active
same,EC50,"human NOD2; human NOD2 specific reporter gene assay, arithmetic mean of quadruplicate samples, NA* indicates inactive under the tested conditions, read-out: hNOD2 Agonistic Activity (μM), EC50",4.08 µM
